Among the targets are Adenosine receptor A2a (Homo sapiens, UniProt P29274); Vasopressin V2 receptor (Homo sapiens, UniProt P30518); Motilin receptor (Homo sapiens, UniProt O43193).
In test [1] the target is T1, Gamma-aminobutyric acid receptor subunit alpha-1 (Rattus norvegicus, UniProt P62813).
The target of test [2] is T2, Muscarinic acetylcholine receptor M1 (Homo sapiens, UniProt P11229).
T2 sequence (P11229 whole entry): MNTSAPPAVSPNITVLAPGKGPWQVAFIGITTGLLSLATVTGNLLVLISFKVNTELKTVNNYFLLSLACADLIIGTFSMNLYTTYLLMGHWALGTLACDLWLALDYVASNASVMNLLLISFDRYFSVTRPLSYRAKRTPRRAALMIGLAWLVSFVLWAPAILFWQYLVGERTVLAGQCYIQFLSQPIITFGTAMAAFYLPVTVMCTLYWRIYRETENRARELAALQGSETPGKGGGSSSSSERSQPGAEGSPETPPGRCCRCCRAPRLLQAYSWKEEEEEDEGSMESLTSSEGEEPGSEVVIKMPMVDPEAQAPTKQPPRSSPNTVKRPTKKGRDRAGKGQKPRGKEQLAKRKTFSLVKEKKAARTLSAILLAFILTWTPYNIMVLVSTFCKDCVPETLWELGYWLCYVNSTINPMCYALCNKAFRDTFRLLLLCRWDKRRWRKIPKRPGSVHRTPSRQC
The test is classed as functional, cell-based.

Test [3] deals with T2, Muscarinic acetylcholine receptor M1. The test is classed as functional, cell-based. The source holds these as a separate data set.
Test [4] deals with T3, Type-1 angiotensin II receptor (Homo sapiens, UniProt P30556).
T3 sequence (P30556 whole entry): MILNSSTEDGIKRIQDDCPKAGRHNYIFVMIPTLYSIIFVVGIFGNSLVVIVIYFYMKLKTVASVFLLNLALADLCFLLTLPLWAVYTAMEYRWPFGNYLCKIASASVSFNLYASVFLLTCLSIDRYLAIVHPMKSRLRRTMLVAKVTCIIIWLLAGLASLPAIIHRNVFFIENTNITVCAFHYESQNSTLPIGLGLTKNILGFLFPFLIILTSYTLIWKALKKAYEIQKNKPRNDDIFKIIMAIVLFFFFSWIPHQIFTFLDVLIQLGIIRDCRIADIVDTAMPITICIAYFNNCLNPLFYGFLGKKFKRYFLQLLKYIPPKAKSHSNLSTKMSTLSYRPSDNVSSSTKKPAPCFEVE

The target in test [5] is T4, Cholecystokinin receptor type A (Homo sapiens, UniProt P32238).
T4 sequence (P32238 whole entry): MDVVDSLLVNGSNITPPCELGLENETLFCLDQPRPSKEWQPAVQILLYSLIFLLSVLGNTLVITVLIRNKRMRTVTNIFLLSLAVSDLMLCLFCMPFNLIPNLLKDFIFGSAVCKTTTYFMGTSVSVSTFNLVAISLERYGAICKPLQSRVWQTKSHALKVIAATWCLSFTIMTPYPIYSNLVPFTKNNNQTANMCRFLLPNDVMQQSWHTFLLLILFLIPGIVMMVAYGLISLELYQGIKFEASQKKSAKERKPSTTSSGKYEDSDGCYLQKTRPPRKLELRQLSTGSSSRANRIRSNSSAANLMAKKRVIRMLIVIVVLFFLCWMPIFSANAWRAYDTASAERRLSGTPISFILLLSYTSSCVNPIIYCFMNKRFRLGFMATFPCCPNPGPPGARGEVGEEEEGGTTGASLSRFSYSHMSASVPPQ

Test [6] addresses T1, Gamma-aminobutyric acid receptor subunit alpha-1. The source holds these as a separate data set.
Test [7] deals with Glutamate receptor ionotropic, NMDA 1 (Rattus norvegicus, UniProt P35439).
The target of test [8] is 5-hydroxytryptamine receptor 2B (Homo sapiens, UniProt P41595). The test is classed as functional, cell-based.
Chain of 5-hydroxytryptamine receptor 2B (P41595 whole entry): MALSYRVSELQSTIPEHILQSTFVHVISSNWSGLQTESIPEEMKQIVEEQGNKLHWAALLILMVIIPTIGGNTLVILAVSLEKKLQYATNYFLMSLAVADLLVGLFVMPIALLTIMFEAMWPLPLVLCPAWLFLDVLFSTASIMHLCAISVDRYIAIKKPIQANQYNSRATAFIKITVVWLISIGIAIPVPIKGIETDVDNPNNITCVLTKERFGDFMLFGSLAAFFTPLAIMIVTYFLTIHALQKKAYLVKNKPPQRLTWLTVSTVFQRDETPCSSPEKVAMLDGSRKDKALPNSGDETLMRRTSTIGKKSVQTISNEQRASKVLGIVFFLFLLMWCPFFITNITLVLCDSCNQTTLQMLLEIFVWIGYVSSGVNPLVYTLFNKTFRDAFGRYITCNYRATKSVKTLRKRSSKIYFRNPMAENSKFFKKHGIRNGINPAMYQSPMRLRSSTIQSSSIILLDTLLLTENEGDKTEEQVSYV
The target of test [9] is Delta-type opioid receptor (Homo sapiens, UniProt P41143).
Chain of Delta-type opioid receptor (P41143 whole entry): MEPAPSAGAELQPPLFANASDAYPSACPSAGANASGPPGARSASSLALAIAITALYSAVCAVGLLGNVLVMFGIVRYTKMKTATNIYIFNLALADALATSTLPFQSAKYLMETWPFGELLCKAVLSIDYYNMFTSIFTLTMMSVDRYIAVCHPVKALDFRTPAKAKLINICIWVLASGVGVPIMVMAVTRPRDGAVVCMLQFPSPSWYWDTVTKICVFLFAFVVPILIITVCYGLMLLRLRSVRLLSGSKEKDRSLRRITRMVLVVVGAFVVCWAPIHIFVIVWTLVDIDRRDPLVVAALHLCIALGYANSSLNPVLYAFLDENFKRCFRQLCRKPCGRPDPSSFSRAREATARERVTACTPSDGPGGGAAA
The next test addresses T5, Thromboxane A2 receptor (Homo sapiens, UniProt P21731).
T5 sequence (P21731 whole entry): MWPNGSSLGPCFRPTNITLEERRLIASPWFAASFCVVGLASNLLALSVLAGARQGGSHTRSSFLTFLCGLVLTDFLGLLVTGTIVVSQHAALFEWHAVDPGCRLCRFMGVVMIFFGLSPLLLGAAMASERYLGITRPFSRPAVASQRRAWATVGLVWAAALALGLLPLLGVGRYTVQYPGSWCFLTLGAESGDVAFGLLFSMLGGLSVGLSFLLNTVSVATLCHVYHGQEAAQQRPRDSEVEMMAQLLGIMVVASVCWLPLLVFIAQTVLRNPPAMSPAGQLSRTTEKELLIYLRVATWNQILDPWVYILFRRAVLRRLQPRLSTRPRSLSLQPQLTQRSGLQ

In test [10] the target is Sodium-dependent dopamine transporter (Homo sapiens, UniProt Q01959).
Chain of Sodium-dependent dopamine transporter (Q01959 whole entry): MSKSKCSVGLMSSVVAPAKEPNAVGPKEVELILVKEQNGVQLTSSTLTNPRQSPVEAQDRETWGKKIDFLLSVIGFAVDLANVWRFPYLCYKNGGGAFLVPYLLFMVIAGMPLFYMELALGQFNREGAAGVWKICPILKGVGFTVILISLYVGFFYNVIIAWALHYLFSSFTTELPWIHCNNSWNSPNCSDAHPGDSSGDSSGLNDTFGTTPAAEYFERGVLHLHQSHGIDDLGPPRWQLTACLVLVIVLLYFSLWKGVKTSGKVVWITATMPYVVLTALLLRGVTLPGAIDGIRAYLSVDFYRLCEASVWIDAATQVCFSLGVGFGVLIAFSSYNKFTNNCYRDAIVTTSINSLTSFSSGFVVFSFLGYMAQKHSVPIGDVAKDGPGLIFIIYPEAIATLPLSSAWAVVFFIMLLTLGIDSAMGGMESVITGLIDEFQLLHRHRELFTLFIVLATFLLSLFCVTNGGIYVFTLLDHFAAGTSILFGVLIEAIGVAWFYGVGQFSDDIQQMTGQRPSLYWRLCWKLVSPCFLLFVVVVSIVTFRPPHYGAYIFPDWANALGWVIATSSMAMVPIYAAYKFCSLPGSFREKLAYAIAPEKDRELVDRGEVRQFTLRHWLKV
The target of test [11] is T6, Amine oxidase [flavin-containing] A (Homo sapiens, UniProt P21397).
T6 sequence (P21397 whole entry): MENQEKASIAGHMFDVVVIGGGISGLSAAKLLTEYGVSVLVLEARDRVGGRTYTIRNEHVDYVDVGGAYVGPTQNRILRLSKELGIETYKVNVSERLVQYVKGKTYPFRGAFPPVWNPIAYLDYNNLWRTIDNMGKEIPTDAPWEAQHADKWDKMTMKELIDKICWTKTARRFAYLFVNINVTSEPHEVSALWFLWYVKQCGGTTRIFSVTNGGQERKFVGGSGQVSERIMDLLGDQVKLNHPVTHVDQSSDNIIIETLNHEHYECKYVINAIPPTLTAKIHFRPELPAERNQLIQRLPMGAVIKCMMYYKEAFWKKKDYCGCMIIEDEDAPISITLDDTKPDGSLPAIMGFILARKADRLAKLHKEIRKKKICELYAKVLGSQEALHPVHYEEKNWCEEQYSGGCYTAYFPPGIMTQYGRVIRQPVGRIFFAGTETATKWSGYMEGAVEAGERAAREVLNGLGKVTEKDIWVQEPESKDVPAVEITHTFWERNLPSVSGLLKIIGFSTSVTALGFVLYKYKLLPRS
The test is classed as functional.

Molecules are shown by their SMILES. Some results are limits rather than exact numbers.
Note: assay procedure not described here.

Chain of Motilin receptor (O43193 whole entry): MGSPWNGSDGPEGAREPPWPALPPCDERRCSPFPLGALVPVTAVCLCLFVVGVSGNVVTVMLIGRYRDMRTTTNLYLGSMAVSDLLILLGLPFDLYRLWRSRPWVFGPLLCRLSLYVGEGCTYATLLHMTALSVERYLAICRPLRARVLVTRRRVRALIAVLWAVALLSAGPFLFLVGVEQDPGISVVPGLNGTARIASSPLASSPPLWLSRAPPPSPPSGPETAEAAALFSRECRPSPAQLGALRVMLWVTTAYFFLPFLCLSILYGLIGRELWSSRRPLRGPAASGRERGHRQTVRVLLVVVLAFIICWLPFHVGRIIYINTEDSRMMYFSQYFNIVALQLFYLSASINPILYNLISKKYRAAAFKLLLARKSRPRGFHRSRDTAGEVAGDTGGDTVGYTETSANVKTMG
Chain of Adenosine receptor A2a (P29274 whole entry): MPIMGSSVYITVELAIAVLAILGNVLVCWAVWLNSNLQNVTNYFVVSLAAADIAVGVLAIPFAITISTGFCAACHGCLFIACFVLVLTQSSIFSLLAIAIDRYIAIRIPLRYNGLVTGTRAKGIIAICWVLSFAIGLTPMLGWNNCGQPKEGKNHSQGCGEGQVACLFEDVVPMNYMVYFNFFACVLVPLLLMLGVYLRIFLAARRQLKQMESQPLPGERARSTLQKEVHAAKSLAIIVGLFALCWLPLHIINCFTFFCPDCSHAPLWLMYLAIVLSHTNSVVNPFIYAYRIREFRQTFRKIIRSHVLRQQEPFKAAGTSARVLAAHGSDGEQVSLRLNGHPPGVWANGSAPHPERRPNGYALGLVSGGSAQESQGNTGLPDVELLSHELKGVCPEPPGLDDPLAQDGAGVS
Chain of Vasopressin V2 receptor (P30518 whole entry): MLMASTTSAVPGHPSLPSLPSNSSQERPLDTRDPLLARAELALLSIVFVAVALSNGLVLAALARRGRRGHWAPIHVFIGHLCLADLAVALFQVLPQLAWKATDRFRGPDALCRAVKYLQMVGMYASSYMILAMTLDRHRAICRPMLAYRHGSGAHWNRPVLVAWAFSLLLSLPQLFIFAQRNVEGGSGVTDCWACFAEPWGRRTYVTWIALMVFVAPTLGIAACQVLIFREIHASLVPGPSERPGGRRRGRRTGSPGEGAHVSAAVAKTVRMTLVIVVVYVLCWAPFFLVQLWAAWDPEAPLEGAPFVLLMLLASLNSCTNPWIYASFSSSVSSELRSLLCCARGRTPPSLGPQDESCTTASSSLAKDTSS
T1 sequence (P62813 whole entry): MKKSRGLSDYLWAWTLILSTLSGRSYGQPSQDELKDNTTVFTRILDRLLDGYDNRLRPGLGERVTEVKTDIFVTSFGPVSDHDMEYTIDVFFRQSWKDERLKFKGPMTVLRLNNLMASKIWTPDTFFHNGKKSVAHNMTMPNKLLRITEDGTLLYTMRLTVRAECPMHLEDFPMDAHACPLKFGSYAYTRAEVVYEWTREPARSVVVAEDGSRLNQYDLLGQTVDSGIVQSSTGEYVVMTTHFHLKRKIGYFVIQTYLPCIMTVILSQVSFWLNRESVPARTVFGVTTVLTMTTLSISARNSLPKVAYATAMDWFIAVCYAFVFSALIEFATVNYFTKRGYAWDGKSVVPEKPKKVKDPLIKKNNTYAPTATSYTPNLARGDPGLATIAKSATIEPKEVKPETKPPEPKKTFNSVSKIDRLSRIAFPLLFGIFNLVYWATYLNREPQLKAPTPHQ

The term AC50 denotes the midpoint of the concentration-response curve, whichever way the signal moves. The low end stands for greater potency, the high end for weaker potency. Consider `CCCCCCCC(=O)N[C@H](CN1CCCC1)[C@H](O)c1ccc2c(c1)OCCO2`, for which the AC50 in test [1] was over 30 µM.
Consider `CC(C1=C(CCN(C)C)Cc2ccccc21)c1ccccn1` (configuration not stated), for which the AC50 in test [2] was over 30 µM; in test [3] it was 7.57 µM; in [1] it was over 30 µM.
As for `CC(=O)OC(C)OC(=O)C(C)c1ccc(-c2ccccc2)c(F)c1` (configuration not stated), the AC50 in test [2], in test [3] and in test [1] was over 30 µM throughout.
As to `CC(=O)OCC[N+](C)(C)C` [ACETYLCHOLINE], the AC50 at Adenosine receptor A2a is over 30 µM; in [4], over 30 µM; on Vasopressin V2 receptor, over 30 µM; in test [5] it was over 30 µM; in test [6] it was over 10 µM; in test [1], over 30 µM. The AC50 in test [7] was over 10 µM; in test [8] it was over 10 µM; on Motilin receptor, over 30 µM; in test [9], over 10 µM; at Thromboxane A2 receptor, over 30 µM; in test [10], over 30 µM. In test [11], this compound gave an AC50 of over 10 µM.
Turning to `C[C@H](N)C(=O)O` [ALANINE], the AC50 in test [2], in test [3] and in test [1] was over 30 µM throughout.
For `O=C1c2c(O)cccc2Cc2cccc(O)c21` [ANTHRALIN], the half-maximal activity concentration (AC50) is over 30 µM in test [2], over 30 µM in test [3] and over 3 µM in [1].
Regarding `O=C(Nc1nc(-c2cc(Cl)cs2)c(N2CCN(C3CCCCC3)CC2)s1)c1cnc(N2CCC(C(=O)O)CC2)c(Cl)c1` [AVATROMBOPAG], the AC50 is over 10 µM on Adenosine receptor A2a; over 10 µM in test [4]; over 10 µM in [6]; over 30 µM in test [1]; over 10 µM in [7]; over 10 µM at Motilin receptor. In addition, the AC50 (in test [9]; at Thromboxane A2 receptor; in test [10]) was over 10 µM each time.
For `CO[C@@]1(NC(=O)CSCC#N)C(=O)N2C(C(=O)O)=C(CSc3nnnn3C)CS[C@@H]21` [CEFMETAZOLE], the AC50 in test [1], in test [7], in [8], in test [9] and in test [11] was over 30 µM each time.
As for `CC[C@H]1OC(=O)[C@H](C)[C@@H](O[C@H]2C[C@@](C)(OC)[C@@H](O)[C@H](C)O2)[C@H](C)[C@@H](O[C@@H]2O[C@H](C)C[C@H](N(C)C)[C@H]2O)[C@](C)(OC)C[C@@H](C)C(=O)[C@H](C)[C@@H](O)[C@]1(C)O` [CLARITHROMYCIN], the AC50 (on Adenosine receptor A2a; in [4]; on Vasopressin V2 receptor; in test [5]; in test [1]; in [8]) was over 30 µM in each case. Further, the AC50 (on Motilin receptor; on Thromboxane A2 receptor; in [10]; in [11]) was over 30 µM each time.
For `Oc1c(I)cc(Cl)c2cccnc12` [CLIOQUINOL], the concentration at half-maximal activity (AC50) was over 30 µM in [6]; over 30 µM in [1]; 13 µM in [7]; over 30 µM in [8]; over 30 µM in [9]; over 30 µM in test [11].
In test [1], `O=C(CCCN1CC=C(n2c(=O)[nH]c3ccccc32)CC1)c1ccc(F)cc1` [DROPERIDOL] registered an AC50 of over 30 µM.
Regarding `CCn1cc(C(=O)O)c(=O)c2cc(F)c(N3CCNCC3)nc21` [ENOXACIN], the AC50 on Adenosine receptor A2a was over 30 µM; in test [4], over 30 µM; on Vasopressin V2 receptor, over 30 µM; in test [5], over 30 µM; in test [6] it was over 10 µM; in [1], over 30 µM. Moreover, the AC50 in test [7] is over 10 µM; in [8], over 10 µM; at Motilin receptor, over 10 µM; in test [9], over 10 µM; on Thromboxane A2 receptor it was 6.06 µM; in test [10], over 10 µM. The compound also had an AC50 in test [11] of over 10 µM.
As for `CCC(=O)O[C@@H]1CC(=O)O[C@H](C)C/C=C/C=C/[C@H](OC(C)=O)[C@H](C)C[C@H](CC=O)[C@H](O[C@@H]2O[C@H](C)[C@@H](O[C@H]3C[C@@](C)(OC(C)=O)[C@@H](OC(=O)CC)[C@H](C)O3)[C@H](N(C)C)[C@H]2O)[C@H]1OC` [MIOCAMYCIN], in test [1], the AC50 is over 30 µM.
For the compound `c1cc(CN2CCCNCCNCCCNCC2)ccc1CN1CCCNCCNCCCNCC1` [PLERIXAFOR], the AC50 in test [2] and in test [3] was over 30 µM throughout.
With `COCCCOc1ccnc(C[S+]([O-])c2nc3ccccc3[nH]2)c1C` (configuration not stated) [RABEPRAZOLE], the AC50 at Adenosine receptor A2a was over 30 µM; in test [4] it was over 30 µM; on Vasopressin V2 receptor, over 30 µM; in test [5] it was over 30 µM; in [6], over 10 µM; in test [1], over 30 µM. In addition, the AC50 in test [7] was over 10 µM; in test [8], 12 µM; on Motilin receptor it was over 10 µM; in test [9] it was over 30 µM; on Thromboxane A2 receptor, 11.4 µM; in test [10] it was over 10 µM. Moreover, the AC50 in test [11] was over 10 µM.
As to `CCCC(=O)O[C@H]1[C@H](C)O[C@@H](O[C@H]2[C@H](N(C)C)[C@@H](O)[C@H](O[C@H]3[C@@H](CC=O)C[C@@H](C)[C@@H](O)/C=C/C=C/C[C@@H](C)OC(=O)C[C@@H](O)[C@@H]3OC)O[C@@H]2C)C[C@@]1(C)OC(=O)CC` [ROKITAMYCIN], the AC50 in test [2] and in [3] was over 30 µM throughout.
`O=C(Oc1ccccc1C(=O)O)c1ccccc1O` [SALSALATE]: the AC50 in [1] was over 30 µM.
Take `COc1cc([C@@H]2c3cc4c(cc3[C@@H](O[C@@H]3O[C@@H]5CO[C@@H](c6cccs6)O[C@H]5[C@H](O)[C@H]3O)[C@H]3COC(=O)[C@H]23)OCO4)cc(OC)c1O` [TENIPOSIDE]: the concentration at half-maximal activity (AC50) in [2] and in test [3] was over 30 µM in each case.
For the compound `C[C@@H]1C[C@H]2[C@@H]3CCC4=CC(=O)C=C[C@]4(C)C3=CC[C@]2(C)[C@H]1C(=O)CN1CCN(c2cc(N3CCCC3)nc(N3CCCC3)n2)CC1` [TIRILAZAD], the AC50 in test [1] was over 30 µM.

For the origin of these results see ChEMBL document CHEMBL5291721, “A preclinical secondary pharmacology resource illuminates target-adverse drug reaction associations of marketed drugs” (Nat Commun, 2023).
